Reference: ChEMBL document CHEMBL1909294, “Translating clinical findings into knowledge in drug safety evaluation--drug induced liver injury prediction system (DILIps)” (PLoS Comput Biol, 2011)

What was measured:
[1] = tested on: Hepatotoxicity;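 on HepSE Combined Scores: combined hepatic side effect score as listed in the training data of the Drug Induced Liver Injury Prediction System (DILIps)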;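 on HepSE cirrhosis: cirrhosis hepatic side effect score taken from the DILIps (drug-induced liver injury prediction) training set; call rule not given here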;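 on HepSE elevated liver function tests: hepatic side effect score for raised liver function tests, as recorded in the DILIps training set used for predicting drug-induced liver injury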;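 on HepSE hepatomegaly: hepatic side effect score for hepatomegaly, taken from the training set of the DILIps drug-induced liver injury prediction system; call rule not given here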;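 on HepSE jaundice: Jaundice-related hepatic side-effect score drawn from the training data of the DILIps (drug-induced liver injury prediction system); call rule not given here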;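 on HepSE liver function tests abnormal: hepatic side effect score taken from the DILIps (drug-induced liver injury prediction system) training data, here covering abnormal liver function test findings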
[2] = tested on: Hepatotoxicity; remark: listed apart in the source;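 on HepSE Combined Scores: combined hepatic side effect score as listed in the training data of the Drug Induced Liver Injury Prediction System (DILIps)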;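 on HepSE cirrhosis: cirrhosis hepatic side effect score taken from the DILIps (drug-induced liver injury prediction) training set; call rule not given here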;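 on HepSE elevated liver function tests: hepatic side effect score for raised liver function tests, as recorded in the DILIps training set used for predicting drug-induced liver injury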;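 on HepSE hepatomegaly: hepatic side effect score for hepatomegaly, taken from the training set of the DILIps drug-induced liver injury prediction system; call rule not given here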;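 on HepSE jaundice: Jaundice-related hepatic side-effect score drawn from the training data of the DILIps (drug-induced liver injury prediction system); call rule not given here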;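 on HepSE liver function tests abnormal: hepatic side effect score taken from the DILIps (drug-induced liver injury prediction system) training data, here covering abnormal liver function test findings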
[3] = tested on: Hepatotoxicity; remark: listed apart in the source;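 on HepSE Combined Scores: combined hepatic side effect score as listed in the training data of the Drug Induced Liver Injury Prediction System (DILIps)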;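 on HepSE cirrhosis: cirrhosis hepatic side effect score taken from the DILIps (drug-induced liver injury prediction) training set; call rule not given here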;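 on HepSE elevated liver function tests: hepatic side effect score for raised liver function tests, as recorded in the DILIps training set used for predicting drug-induced liver injury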;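 on HepSE hepatomegaly: hepatic side effect score for hepatomegaly, taken from the training set of the DILIps drug-induced liver injury prediction system; call rule not given here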;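 on HepSE jaundice: Jaundice-related hepatic side-effect score drawn from the training data of the DILIps (drug-induced liver injury prediction system); call rule not given here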;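 on HepSE liver function tests abnormal: hepatic side effect score taken from the DILIps (drug-induced liver injury prediction system) training data, here covering abnormal liver function test findings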
[4] = tested on: Hepatotoxicity; remark: listed apart in the source;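 on HepSE Combined Scores: combined hepatic side effect score as listed in the training data of the Drug Induced Liver Injury Prediction System (DILIps)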;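 on HepSE cirrhosis: cirrhosis hepatic side effect score taken from the DILIps (drug-induced liver injury prediction) training set; call rule not given here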;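 on HepSE hepatomegaly: hepatic side effect score for hepatomegaly, taken from the training set of the DILIps drug-induced liver injury prediction system; call rule not given here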;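 on HepSE jaundice: Jaundice-related hepatic side-effect score drawn from the training data of the DILIps (drug-induced liver injury prediction system); call rule not given here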;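 on HepSE liver function tests abnormal: hepatic side effect score taken from the DILIps (drug-induced liver injury prediction system) training data, here covering abnormal liver function test findings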
[5] = tested on: Hepatotoxicity; remark: listed apart in the source
[6] = tested on: Hepatotoxicity; remark: listed apart in the source
[7] = tested on: Hepatotoxicity; remark: listed apart in the source
[8] = tested on: Hepatotoxicity; remark: listed apart in the source
[9] = tested on: Hepatotoxicity; remark: listed apart in the source
[10] = tested on: Hepatotoxicity; remark: listed apart in the source
[11] = tested on: Hepatotoxicity; remark: listed apart in the source
[12] = tested on: Hepatotoxicity; remark: listed apart in the source
[13] = tested on: Hepatotoxicity; remark: listed apart in the source
[14] = tested on: Hepatotoxicity; remark: listed apart in the source

| SMILES | HepSE_jaundice [1] | HepSE_liver function tests abnormal [2] | HepSE_Combined Scores [3] | HepSE_hepatomegaly [4] | HepSE_cirrhosis [5] | HepSE_elevated liver function tests [6] | HepSE_cholecystitis [7] | HepSE_hepatic failure [8] | HepSE_liver fatty [9] | HepSE_hepatitis [10] | HepSE_bilirubinemia [11] | HepSE_liver disease [12] | HepSE_hepatic necrosis [13] | HepSE_cholelithiasis [14] | further results |
| --- | --- | --- | --- | --- | --- | --- | --- | --- | --- | --- | --- | --- | --- | --- | --- |
| CC(C)n1c(/C=C/C(O)CC(O)CC(=O)O)c(-c2ccc(F)cc2)c2ccccc21 (stereo not drawn) [FLUVASTATIN] | – | – | – | – | – | – | – | – | – | – | – | – | – | – | HepSE_jaundice ([1]; Liver): 1; HepSE_liver function tests abnormal ([2]; Liver): 0; HepSE_Combined Scores ([3]; Liver): 4; HepSE_hepatomegaly ([4]; Liver): 0; HepSE_cirrhosis ([5]; Liver): 1; HepSE_elevated liver function tests ([6]; Liver): 0; HepSE_cholecystitis ([7]; Liver): 0; HepSE_hepatic failure ([8]; Liver): 0; HepSE_liver fatty ([9]; Liver): 0; HepSE_hepatitis ([10]; Liver): 1; HepSE_bilirubinemia ([11]; Liver): 0; HepSE_liver disease ([12]; Liver): 0; HepSE_hepatic necrosis ([13]; Liver): 1; HepSE_cholelithiasis ([14]; Liver): 0 |
| COCCCC/C(=N\OCCN)c1ccc(C(F)(F)F)cc1 [FLUVOXAMINE] | 1 | 1 | 5 | 0 | 0 | 0 | 1 | 0 | 0 | 1 | 0 | 0 | 0 | 1 | – |
| Nc1nc2ncc(CNc3ccc(C(=O)N[C@@H](CCC(=O)O)C(=O)O)cc3)nc2c(=O)[nH]1 [FOLIC ACID] | 0 | 0 | 0 | 0 | 0 | 0 | 0 | 0 | 0 | 0 | 0 | 0 | 0 | 0 | – |
| Cc1cn[nH]c1 [FOMEPIZOLE] | 0 | 0 | 0 | 0 | 0 | 0 | 0 | 0 | 0 | 0 | 0 | 0 | 0 | 0 | – |
| CO[C@H]1O[C@H](COS(=O)(=O)[O-])[C@@H](O[C@@H]2O[C@@H](C(=O)[O-])[C@@H](O[C@H]3O[C@H](COS(=O)(=O)[O-])[C@@H](O[C@@H]4O[C@H](C(=O)[O-])[C@@H](O[C@H]5O[C@H](COS(=O)(=O)[O-])[C@@H](O)[C@H](O)[C@H]5NS(=O)(=O)[O-])[C@H](O)[C@H]4O)[C@H](OS(=O)(=O)[O-])[C@H]3NS(=O)(=O)[O-])[C@H](O)[C@H]2OS(=O)(=O)[O-])[C@H](O)[C@H]1NS(=O)(=O)[O-].[Na+].[Na+].[Na+].[Na+].[Na+].[Na+].[Na+].[Na+].[Na+].[Na+] [FONDAPARINUX SODIUM] | 0 | 0 | 1 | 0 | 0 | 0 | 0 | 0 | 0 | 0 | 0 | 1 | 0 | 0 | – |
| CC(C)CN(C[C@@H](OP(=O)(O)O)[C@H](Cc1ccccc1)NC(=O)O[C@H]1CCOC1)S(=O)(=O)c1ccc(N)cc1 [FOSAMPRENAVIR] | 0 | 0 | 0 | 0 | 0 | 0 | 0 | 0 | 0 | 0 | 0 | 0 | 0 | 0 | – |
| O=C(O)P(=O)(O)O [FOSCARNET] | 0 | 0 | 0 | 0 | 0 | 0 | 0 | 0 | 0 | 0 | 0 | 0 | 0 | 0 | – |
| C[C@@H]1O[C@@H]1P(=O)(O)O [FOSFOMYCIN] | 1 | 0 | 2 | 0 | 0 | 0 | 0 | 0 | 0 | 0 | 0 | 0 | 1 | 0 | – |
| CCC(=O)O[C@@H](O[P@](=O)(CCCCc1ccccc1)CC(=O)N1C[C@H](C2CCCCC2)C[C@H]1C(=O)O)C(C)C [FOSINOPRIL] | 1 | 0 | 4 | 1 | 0 | 0 | 0 | 1 | 0 | 1 | 0 | 0 | 0 | 0 | – |
| O=C1NC(c2ccccc2)(c2ccccc2)C(=O)N1COP(=O)(O)O [FOSPHENYTOIN] | 0 | 1 | 1 | 0 | 0 | 0 | 0 | 0 | 0 | 0 | 0 | 0 | 0 | 0 | – |
| NC[C@@H]1O[C@H](O[C@H]2[C@@H](O)[C@H](O[C@@H]3[C@@H](O)[C@H](N)C[C@H](N)[C@H]3O[C@H]3O[C@H](CN)[C@@H](O)[C@H](O)[C@H]3N)O[C@@H]2CO)[C@H](N)[C@@H](O)[C@@H]1O [FRAMYCETIN] | – | – | – | – | – | – | – | – | – | – | – | – | – | – | HepSE_jaundice ([1]; Liver): 0; HepSE_liver function tests abnormal ([2]; Liver): 0; HepSE_Combined Scores ([3]; Liver): 0; HepSE_hepatomegaly ([4]; Liver): 0; HepSE_cirrhosis ([5]; Liver): 0; HepSE_elevated liver function tests ([6]; Liver): 0; HepSE_cholecystitis ([7]; Liver): 0; HepSE_hepatic failure ([8]; Liver): 0; HepSE_liver fatty ([9]; Liver): 0; HepSE_hepatitis ([10]; Liver): 0; HepSE_bilirubinemia ([11]; Liver): 0; HepSE_liver disease ([12]; Liver): 0; HepSE_hepatic necrosis ([13]; Liver): 0; HepSE_cholelithiasis ([14]; Liver): 0 |
| CN[C@@H]1CCc2[nH]c3ccc(C(N)=O)cc3c2C1 [FROVATRIPTAN] | 0 | 0 | 0 | 0 | 0 | 0 | 0 | 0 | 0 | 0 | 0 | 0 | 0 | 0 | – |
